Reference: patent US20250311722A1, “IMPROVED BIOCIDE” (Purgos ApS, priority 2022, published 2025)
≈ marks a conversion by molar mass, not a printed value.

Experiments:
rat = settings: cited from earlier work
bacteria [1] = assay: 2,2′-(octylimino)bisethanol in contaminated solution of polyisocyanate crosslinker, 32° C., cATP (LuminUltra); type: cell-based; settings: for bacteria count: 32° C.
Method: For further analysing the biocidal effect of 2,2′-(octylimino)bisethanol, a solution of 2,2′-(octylimino)bisethanol was added into a contaminated solution of polyisocyanate crosslinker in two different concentrations of 0.50% and 1.00%, incubated at 32° C. and analysed for microbial activity and microbial contamination using […] Adenosine Triphosphate cATP as a measure of microbial contamination using LuminUltra® microbial monitoring system.

[2] = cited from earlier work
bacteria [3] = assay: 2,2′-(octylimino)bisethanol in K-Oleate, incubated at 32° C., cATP (LuminUltra); type: cell-based
Method: (§1) A solution of 2,2′-(octylimino)bisethanol was added to two different solutions comprising two different surfactants, in two different concentrations of 0.50% and 1.00%. The four different solutions incubated at 32° C. and analysed for microbial activity and microbial contamination using […] Adenosine Triphosphate cATP as a measure of microbial contamination using LuminUltra® microbial monitoring system (see e.g. Examples 1, 5 and 6). The results are summarized in tables XXV and XXVI, where “additive” refers to 2,2′-(octylimino)bisethanol.

bacteria [4] = assay: 2,2′-(octylimino)bisethanol in common surfactant/soap, at 32° C., cATP (LuminUltra); type: cell-based
Method: as §1

bacteria [5] = assay: APDEA in different PVB dispersions at 32° C., ATP analysis (LuminUltra); type: cell-based; set-up: bacteria count 6 mo after adding APDEA / bacteria count 1 d after adding APDEA / bacteria count 1 wk after adding APDEA / bacteria count 1 mo after adding APDEA / bacteria count 3 mo after adding APDEA: unit not given here
Method: Tertiary amine, water and PVB-dispersion was mechanically stirred in IKA vertical fixed blade stirrer for sampling in 2-5 minutes. Conditions was industrial clean, meaning no special precautions was taken to prevent contamination, except normal cleanliness and between operations dishwashing procedures.
Working temperatures was 20-25 degre Celsius, and all incubations was made in thermostatic 32-degree Celsius incubator ovens for bottled flasks and open petri dishes.
Before measuring total ATP, the samples are shaken for 30 seconds in a mechanical mixer. 1 ml of each sample is used in the process of analysing total ATP. The protocol is provided by LuminUltra Technologies.
The biocidal effectivity of APDEA in different PVB dispersions was measured as explained above in example 46. Incubation was done at 32° C. and sample tested 1 day (abbreviated as 1d in table XX), 1 week (abbreviated as 1 wk in table XX) and 1, 3 and 6 months (abbreviated as mo in tables XXIII and XXIV) after addition of APDEA.

[6] = 0.50% in common surfactant/soap
[7] = 1.00% in common surfactant/soap
[8] = 0.5% APDEA, PVB dispersion FX2, 32° C.
[9] = 0.5% APDEA, PVB dispersion FX6, 32° C.
[10] = 0.5% APDEA, PVB dispersion MW, 32° C.
[11] = 0.5% APDEA, PVB dispersion SX2, 32° C.
[12] = 0.5% APDEA, PVB dispersion WX2, 32° C.
[13] = 0.5% APDEA, PVB dispersion WX25, 32° C.
[14] = 1.0% APDEA, PVB dispersion FX2, 32° C.
[15] = 1.0% APDEA, PVB dispersion FX6, 32° C.
[16] = 1.0% APDEA, PVB dispersion MW, 32° C.
[17] = 1.0% APDEA, PVB dispersion SX2, 32° C.
[18] = 1.0% APDEA, PVB dispersion WX2, 32° C.
[19] = 1.0% APDEA, PVB dispersion WX25, 32° C.

Structure (SMILES): [Cl-].[Na+] [NaCl, reference compound]
- LD50 (rat, oral) (rat): 3000 mg

Structure (SMILES): CCCCCCCCN(CCO)CCO [2,2′-(octylimino)bisethanol]
- bacteria count (bacteria [1]; 0.50%, 1 day after adding additive): 226
- bacteria count (bacteria [1]; 0.50%, after 1 month): 20
- bacteria count (bacteria [1]; 0.50%, after 1 week): 20
- bacteria count (bacteria [1]; 0.50%, after 3 months): 282
- bacteria count (bacteria [1]; 0.50%, after 6 months): 0
- bacteria count (bacteria [1]; 1.00%, 1 day after adding additive): 174
- bacteria count (bacteria [1]; 1.00%, after 1 month): 155
- bacteria count (bacteria [1]; 1.00%, after 1 week): 180
- bacteria count (bacteria [1]; 1.00%, after 3 months): 0
- bacteria count (bacteria [1]; 1.00%, after 6 months): 0
- effectiveness as a biocide (bacteria [1]; as low concentration as 0.50%, all three test solutions, long term (at least 6 months)): highly effective as a biocide
- solubility in water [2]: 1400 µg/mL (≈ 6.44 mM)
- solubility in water (words) [2]: water dispersible
- BSI (1 day after adding additive) (bacteria [3]; 0.50% in K-Oleate): 29
- BSI (after 1 month) (bacteria [3]; 0.50% in K-Oleate): 68
- BSI (after 1 week) (bacteria [3]; 0.50% in K-Oleate): 52
- BSI (after 3 months) (bacteria [3]; 0.50% in K-Oleate): 80.1
- BSI (after 9 months) (bacteria [3]; 0.50% in K-Oleate): 81.3
- bacteria count (1 day after adding additive) (bacteria [3]; 0.50% in K-Oleate): 789
- bacteria count (after 1 month) (bacteria [3]; 0.50% in K-Oleate): 215
- bacteria count (after 1 week) (bacteria [3]; 0.50% in K-Oleate): 758
- bacteria count (after 3 months) (bacteria [3]; 0.50% in K-Oleate): 88
- bacteria count (after 6 months) (bacteria [3]; 0.50% in K-Oleate): 0
- bacteria count (after 9 months) (bacteria [3]; 0.50% in K-Oleate): 30
- BSI (1 day after adding additive) (bacteria [3]; 1.00% in K-Oleate): 35
- BSI (after 1 month) (bacteria [3]; 1.00% in K-Oleate): 71
- BSI (after 1 week) (bacteria [3]; 1.00% in K-Oleate): 43
- BSI (after 3 months) (bacteria [3]; 1.00% in K-Oleate): 82.4
- BSI (after 6 months) (bacteria [3]; 1.00% in K-Oleate): 30.6
- BSI (after 9 months) (bacteria [3]; 1.00% in K-Oleate): 88.8
- bacteria count (1 day after adding additive) (bacteria [3]; 1.00% in K-Oleate): 284
- bacteria count (after 1 month) (bacteria [3]; 1.00% in K-Oleate): 50
- bacteria count (after 1 week) (bacteria [3]; 1.00% in K-Oleate): 176
- bacteria count (after 3 months) (bacteria [3]; 1.00% in K-Oleate): 39
- bacteria count (after 6 months) (bacteria [3]; 1.00% in K-Oleate): 629
- bacteria count (after 9 months) (bacteria [3]; 1.00% in K-Oleate): 13
- BSI (1 day after adding additive) (bacteria [4]; [6]): 18
- BSI (after 1 month) (bacteria [4]; [6]): 47
- BSI (after 1 week) (bacteria [4]; [6]): 14
- BSI (after 3 months) (bacteria [4]; [6]): 75
- BSI (after 9 months) (bacteria [4]; [6]): 90.8
- bacteria count (1 day after adding additive) (bacteria [4]; [6]): 917
- bacteria count (after 1 month) (bacteria [4]; [6]): 360
- bacteria count (after 1 week) (bacteria [4]; [6]): 5040
- bacteria count (after 3 months) (bacteria [4]; [6]): 28.5
- bacteria count (after 6 months) (bacteria [4]; [6]): 0
- bacteria count (after 9 months) (bacteria [4]; [6]): 7.5
- BSI (1 day after adding additive) (bacteria [4]; [7]): 18
- BSI (after 1 month) (bacteria [4]; [7]): 80
- BSI (after 1 week) (bacteria [4]; [7]): 13
- BSI (after 3 months) (bacteria [4]; [7]): 53.1
- BSI (after 6 months) (bacteria [4]; [7]): 55.6
- BSI (after 9 months) (bacteria [4]; [7]): 39.2
- bacteria count (1 day after adding additive) (bacteria [4]; [7]): 369
- bacteria count (after 1 month) (bacteria [4]; [7]): 2.6
- bacteria count (after 1 week) (bacteria [4]; [7]): 141
- bacteria count (after 3 months) (bacteria [4]; [7]): 20.7
- bacteria count (after 6 months) (bacteria [4]; [7]): 5.86
- bacteria count (after 9 months) (bacteria [4]; [7]): 10.5

Structure (SMILES): NCCCN(CCO)CCO [APDEA, N-(3-Aminopropyl) diethanolamine]
- bacteria count 1 mo after adding APDEA (bacteria [5]; [8]): 35
- bacteria count 1 wk after adding APDEA (bacteria [5]; [8]): 73
- bacteria count 3 mo after adding APDEA (bacteria [5]; [8]): 83
- bacteria count 6 mo after adding APDEA (bacteria [5]; [8]): 195
- bacteria count 1 d after adding APDEA (bacteria [5]; [8]): 25
- bacteria count 1 mo after adding APDEA (bacteria [5]; [9]): 40
- bacteria count 1 wk after adding APDEA (bacteria [5]; [9]): 33
- bacteria count 3 mo after adding APDEA (bacteria [5]; [9]): 65
- bacteria count 6 mo after adding APDEA (bacteria [5]; [9]): 96.6
- bacteria count 1 d after adding APDEA (bacteria [5]; [9]): 71
- bacteria count 1 mo after adding APDEA (bacteria [5]; [10]): 60
- bacteria count 1 wk after adding APDEA (bacteria [5]; [10]): 33
- bacteria count 3 mo after adding APDEA (bacteria [5]; [10]): 84
- bacteria count 6 mo after adding APDEA (bacteria [5]; [10]): 45
- bacteria count 1 d after adding APDEA (bacteria [5]; [10]): 82
- bacteria count 1 mo after adding APDEA (bacteria [5]; [11]): 85
- bacteria count 1 wk after adding APDEA (bacteria [5]; [11]): 66
- bacteria count 3 mo after adding APDEA (bacteria [5]; [11]): 48
- bacteria count 6 mo after adding APDEA (bacteria [5]; [11]): 79
- bacteria count 1 d after adding APDEA (bacteria [5]; [11]): 29
- bacteria count 1 mo after adding APDEA (bacteria [5]; [12]): 50
- bacteria count 1 wk after adding APDEA (bacteria [5]; [12]): 116
- bacteria count 3 mo after adding APDEA (bacteria [5]; [12]): 38.8
- bacteria count 6 mo after adding APDEA (bacteria [5]; [12]): 22
- bacteria count 1 d after adding APDEA (bacteria [5]; [12]): 59
- bacteria count 1 mo after adding APDEA (bacteria [5]; [13]): 98
- bacteria count 1 wk after adding APDEA (bacteria [5]; [13]): 95
- bacteria count 3 mo after adding APDEA (bacteria [5]; [13]): 177
- bacteria count 6 mo after adding APDEA (bacteria [5]; [13]): 93
- bacteria count 1 d after adding APDEA (bacteria [5]; [13]): 71
- biocidal effect as sole biocide (bacteria [5]; 0.5 and 1 wt % to water phase): effects similar to NBDA
- bacteria count 1 mo after adding APDEA (bacteria [5]; [14]): 78
- bacteria count 1 wk after adding APDEA (bacteria [5]; [14]): 80
- bacteria count 3 mo after adding APDEA (bacteria [5]; [14]): 134
- bacteria count 6 mo after adding APDEA (bacteria [5]; [14]): 167
- bacteria count 1 d after adding APDEA (bacteria [5]; [14]): 66
- bacteria count 1 mo after adding APDEA (bacteria [5]; [15]): 100
- bacteria count 1 wk after adding APDEA (bacteria [5]; [15]): 22.4
- bacteria count 3 mo after adding APDEA (bacteria [5]; [15]): 99
- bacteria count 6 mo after adding APDEA (bacteria [5]; [15]): 132
- bacteria count 1 d after adding APDEA (bacteria [5]; [15]): 12
- bacteria count 1 mo after adding APDEA (bacteria [5]; [16]): 110
- bacteria count 1 wk after adding APDEA (bacteria [5]; [16]): 115
- bacteria count 3 mo after adding APDEA (bacteria [5]; [16]): 98
- bacteria count 6 mo after adding APDEA (bacteria [5]; [16]): 38
- bacteria count 1 d after adding APDEA (bacteria [5]; [16]): 75
- bacteria count 1 mo after adding APDEA (bacteria [5]; [17]): 98
- bacteria count 1 wk after adding APDEA (bacteria [5]; [17]): 81
- bacteria count 3 mo after adding APDEA (bacteria [5]; [17]): 92
- bacteria count 6 mo after adding APDEA (bacteria [5]; [17]): 98
- bacteria count 1 d after adding APDEA (bacteria [5]; [17]): 69
- bacteria count 1 mo after adding APDEA (bacteria [5]; [18]): 33
- bacteria count 1 wk after adding APDEA (bacteria [5]; [18]): 18
- bacteria count 3 mo after adding APDEA (bacteria [5]; [18]): 78
- bacteria count 6 mo after adding APDEA (bacteria [5]; [18]): 20
- bacteria count 1 d after adding APDEA (bacteria [5]; [18]): 45
- bacteria count 1 mo after adding APDEA (bacteria [5]; [19]): 75
- bacteria count 1 wk after adding APDEA (bacteria [5]; [19]): 136
- bacteria count 3 mo after adding APDEA (bacteria [5]; [19]): 151
- bacteria count 6 mo after adding APDEA (bacteria [5]; [19]): 35
- bacteria count 1 d after adding APDEA (bacteria [5]; [19]): 72
- solubility in water (words) [2]: water soluble
